Data: patent US12486269B2 (Aconcagua Bio, Inc., priority 2024, dated 2025)

Tests used:
[1] = target: T1, COS-7/AMY3 (human calcitonin receptor (CTR) and RAMP3) (Homo sapiens, UniProt O60896+P30988); experiment: Amylin Receptor cAMP Assay II; format: cell-based; conditions: values marked **: Amylin Receptor cAMP Assay II; COS-7/AMY3 cells, cAMP dynamic 2 kit, 30 min; read-out: Amylin Receptor cAMP Stimulation Activity: EC50
T1 construct: expressed in transfected cells; host or cells: COS-7
Summary of the method: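 Agonist-induced cAMP was quantified by HTRF ratio at 665/615 nm and expressed as % of the window from vehicle to MAX control. Stimulation lasted 30 min at 37 °C in HBSS/20 mM HEPES/0.5 mM IBMX/0.1% casein, using stable human CTR+RAMP3 (AMY3) COS-7 cells at 2000 per well.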

[2] = target: T2, human calcitonin receptor (CTR) (Homo sapiens, UniProt P30988); experiment: Calcitonin Receptor (CTR) cAMP Assay; format: cell-based; conditions: COS7-human CTR Clone #2 stable cell line, cAMP dynamic 2 kit, 30 min; read-out: Calcitonin Receptor cAMP Stimulation Activity: EC50
T2 construct: expressed in transfected cells; host or cells: COS-7 (COS7-human CTR Clone #2)
T2 sequence (P30988 25-474): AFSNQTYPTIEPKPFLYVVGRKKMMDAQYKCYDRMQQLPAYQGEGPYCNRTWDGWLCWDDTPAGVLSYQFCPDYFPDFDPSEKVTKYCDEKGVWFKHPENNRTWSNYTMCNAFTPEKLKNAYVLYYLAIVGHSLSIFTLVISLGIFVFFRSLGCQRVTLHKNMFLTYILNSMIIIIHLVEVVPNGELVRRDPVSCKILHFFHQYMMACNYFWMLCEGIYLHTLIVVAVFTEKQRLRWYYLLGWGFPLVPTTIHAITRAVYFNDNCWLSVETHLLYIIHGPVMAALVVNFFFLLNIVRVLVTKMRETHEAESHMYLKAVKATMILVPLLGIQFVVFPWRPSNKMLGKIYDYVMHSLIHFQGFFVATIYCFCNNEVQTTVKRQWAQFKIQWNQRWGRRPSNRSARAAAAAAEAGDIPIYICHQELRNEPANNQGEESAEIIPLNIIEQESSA
Summary of the method: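 cAMP accumulation was measured by HTRF cAMP dynamic 2 read at 665/615 nm, 1 h at room temperature, with results scaled between vehicle and positive control. Before detection, COS7-human CTR stable cells were stimulated 30 min at 37 °C with compound (4-fold dilutions) in IBMX-containing HBSS/HEPES/casein buffer.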

T1 sequence (O60896 24-148, one chain of several): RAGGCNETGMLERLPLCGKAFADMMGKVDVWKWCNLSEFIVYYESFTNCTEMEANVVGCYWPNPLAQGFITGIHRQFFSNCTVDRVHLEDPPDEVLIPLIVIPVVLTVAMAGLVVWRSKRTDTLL

| SMILES | EC50 [1] [nM] | EC50 [2] [nM] |
| --- | --- | --- |
| O=C1c2c(nc(CCc3ccc(F)cc3)c(-c3n[nH]c(=O)o3)c2-c2ccc3c(Cc4ccc(F)cn4)noc3c2)[C@@H]2CCCN12 [Compound 222, (S)-5-(2-(4-fluorophenethyl)-4-(3-((5-fluoropyridin-2-yl)methyl)benzo[d]isoxazol-6-yl)-5-oxo-7,8,9,9a-tetrahydro-5H-pyrido[2,3-a]pyrrolizin-3-yl)-1,3,4-oxadiazol-2(3H)-one] | 511 | 12.8 |
| COc1cccc2c1CC(F)(F)[C@H]2Nc1nccc2cc(-c3c4c(nc(CCc5ccc(F)cc5)c3-c3n[nH]c(=O)o3)C35CC(CN3C4=O)C5)sc12 [Compound 281, (S)-5-(4-(7-((2,2-difluoro-4-methoxy-2,3-dihydro-1H-inden-1-yl)amino)thieno[2,3-c]pyridin-2-yl)-2-(4-fluorophenethyl)-5-oxo-5,7,8,9-tetrahydro-8,9a-methanopyrido[2,3-a]pyrrolizin-3-yl)-1,3,4-oxadiazol-2(3H)-one] | 0.733 | 0.239 |
| N#Cc1ccc(Cn2ccc3cc(-c4c5c(nc(CCc6ccc(F)cc6)c4-c4n[nH]c(=O)o4)C4CCCN4C5=O)cnc32)cc1F (stereo not drawn) [Compound 214, 2-fluoro-4-((5-(2-(4-fluorophenethyl)-5-oxo-3-(5-oxo-4,5-dihydro-1,3,4-oxadiazol-2-yl)-7,8,9,9a-tetrahydro-5H-pyrido[2,3-a]pyrrolizin-4-yl)-1H-pyrrolo[2,3-b]pyridin-1-yl)methyl)benzonitrile] | 129 | 1.92 |
| COc1cccc2c1CC[C@H]2Nc1nccc2cc(-c3c4c(nc(CCc5ccc(Cl)cc5)c3-c3n[nH]c(=O)o3)[C@@H]3CCCN3C4=O)sc12 [Compound 242, 5-((S)-2-(4-chlorophenethyl)-4-(7-(((R)-4-methoxy-2,3-dihydro-1H-inden-1-yl)amino)thieno[2,3-c]pyridin-2-yl)-5-oxo-7,8,9,9a-tetrahydro-5H-pyrido[2,3-a]pyrrolizin-3-yl)-1,3,4-oxadiazol-2(3H)-one] | 18.4 | 0.668 |
| O=C1c2c(nc(CCc3ccc(F)cc3)c(-c3n[nH]c(=O)o3)c2-c2ccc3c(c2)oc(=O)n3Cc2ccc(F)cn2)[C@@H]2CCCN12 [Compound 164, (S)-6-(2-(4-fluorophenethyl)-5-oxo-3-(5-oxo-4,5-dihydro-1,3,4-oxadiazol-2-yl)-7,8,9,9a-tetrahydro-5H-pyrido[2,3-a]pyrrolizin-4-yl)-3-((5-fluoropyridin-2-yl)methyl)benzo[d]oxazol-2(3H)-one] | 39.9 | 4.28 |
| Cc1cc2cc(-c3c4c(nc(CCc5ccc(F)cc5)c3-c3n[nH]c(=O)o3)C35CC(CN3C4=O)C5)sc2c(N[C@@H]2CCOc3c(F)cc(F)cc32)n1 [Compound 295, (R)-5-(4-(7-((6,8-difluorochroman-4-yl)amino)-5-methylthieno[2,3-c]pyridin-2-yl)-2-(4-fluorophenethyl)-5-oxo-8,9-dihydro-5H,7H-8,9a-methanopyrido[2,3-a]pyrrolizin-3-yl)-1,3,4-oxadiazol-2(3H)-one] | 1.21 | 0.0289 |
| O=C1c2c(nc(CCc3ccc(F)cc3)c(-c3noc(=O)[nH]3)c2-c2cc3ccnc(N[C@@H]4CCCc5ccccc54)c3s2)[C@@H]2CCCN12 [Compound 139] | 41.5 | 2.7 |

Further compounds by falling EC50 [1], results first:

| EC50 [1] [nM] | EC50 [2] [nM] | SMILES |
| --- | --- | --- |
| 1790 | 58.9 | O=C1c2c(nc(CCC3CCOCC3)c(-c3cc(=O)[nH]o3)c2-c2cc3ccnc(N[C@@H]4CCc5ncccc54)c3s2)[C@@H]2CCCN12 [Compound 197, 5-((S)-4-(7-(((R)-6,7-dihydro-5H-cyclopenta[b]pyridin-5-yl)amino)thieno[2,3-c]pyridin-2-yl)-5-oxo-2-(2-(tetrahydro-2H-pyran-4-yl)ethyl)-7,8,9,9a-tetrahydro-5H-pyrido[2,3-a]pyrrolizin-3-yl)isoxazol-3(2H)-one] |
| 1120 | 271 | O=C1c2c(nc(CCc3ccc(F)cc3)c(-c3noc(=O)[nH]3)c2-c2ccc3c(c2)CC[C@H]3OCc2ccc(F)c(F)c2)[C@@H]2CCCN12 [Compound 113] |
| 529 | 4.69 | N#Cc1ccc(Cn2c(=O)oc3cc(-c4c5c(nc(CCC6CCOCC6)c4-c4cc(=O)[nH]o4)[C@@H]4CCCN4C5=O)ccc32)cc1F [Compound 203, 4-[[6-[(9aS)-5-oxo-3-(3-oxoisoxazol-5-yl)-2-(2-tetrahydropyran-4-ylethyl)-1,4,7,8,9,9a-hexahydropyrido[2,3-a]pyrrolizin-4-yl]-2-oxo-1,3-benzoxazol-3-yl]methyl]-2-fluoro-benzonitrile] |
| 298 | 7.36 | COc1c(F)ccc2c1CC(F)(F)[C@@H]2Nc1nccc2cc(-c3c4c(nc(CCc5ccc(F)cc5)c3-c3n[nH]c(=O)o3)C35CC(CN3C4=O)C5)sc12 [Compound 292, (R)-5-(2-(4-fluorophenethyl)-5-oxo-4-(7-((2,2,5-trifluoro-4-methoxy-2,3-dihydro-1H-inden-1-yl)amino)thieno[2,3-c]pyridin-2-yl)-5,7,8,9-tetrahydro-8,9a-methanopyrido[2,3-a]pyrrolizin-3-yl)-1,3,4-oxadiazol-2(3H)-one] |
| 89.3 | 11.5 | COc1cccc2c1CC[C@H]2Nc1nccc2cc(-c3c4c(nc(C[C@@H]5COc6cc(F)ccc65)c3-c3n[nH]c(=O)o3)[C@@H]3CCCN3C4=O)sc12 [Compound 218, 5-((S)-2-(((S)-6-fluoro-2,3-dihydrobenzofuran-3-yl)methyl)-4-(7-(((R)-4-methoxy-2,3-dihydro-1H-inden-1-yl)amino)thieno[2,3-c]pyridin-2-yl)-5-oxo-7,8,9,9a-tetrahydro-5H-pyrido[2,3-a]pyrrolizin-3-yl)-1,3,4-oxadiazol-2(3H)-one] |
| 54.1 | 3.18 | O=C1c2c(nc(CCc3ccc(F)cc3)c(-c3noc(=O)[nH]3)c2-c2cc3ccnc(NCc4ccc(F)c(Cl)c4)c3s2)[C@@H]2CCCN12 [Compound 146] |
| 53.1 | 0.786 | N#Cc1ccc(Cn2c(=O)oc3cc(-c4c(-c5n[nH]c(=O)o5)c(CCc5ccc(F)cc5)nc5c4S(=O)(=O)N4CCC[C@@H]54)ccc32)nc1 [Compound 213, (S)-6-((6-(2-(4-fluorophenethyl)-5,5-dioxido-3-(5-oxo-4,5-dihydro-1,3,4-oxadiazol-2-yl)-7,8,9,9a-tetrahydropyrrolo[1′,2′:2,3]isothiazolo[4,5-b]pyridin-4-yl)-2-oxobenzo[d]oxazol-3(2H)-yl)methyl)nicotinonitrile] |
| 52.9 | 7.85 | COc1cccc2c1CC[C@H]2Nc1nccc2cc(-c3c4c(nc(CCc5ccc(F)cc5)c3-c3n[nH]c(=O)o3)[C@H]3N(CCC3(C)C)C4=O)sc12 [Compound 182, 5-((S)-2-(4-fluorophenethyl)-4-(7-(((R)-4-methoxy-2,3-dihydro-1H-inden-1-yl)amino)thieno[2,3-c]pyridin-2-yl)-9,9-dimethyl-5-oxo-7,8,9,9a-tetrahydro-5H-pyrido[2,3-a]pyrrolizin-3-yl)-1,3,4-oxadiazol-2(3H)-one] |
| 33.5 | 1.72 | COc1cccc2c1CC[C@H]2Nc1nccc2cc(-c3c4c(nc(CCc5ccn6ccnc6c5)c3-c3n[nH]c(=O)o3)[C@@H]3CCCN3C4=O)sc12 [Compound 241, 5-((S)-2-(2-(imidazo[1,2-a]pyridin-7-yl)ethyl)-4-(7-(((R)-4-methoxy-2,3-dihydro-1H-inden-1-yl)amino)thieno[2,3-c]pyridin-2-yl)-5-oxo-7,8,9,9a-tetrahydro-5H-pyrido[2,3-a]pyrrolizin-3-yl)-1,3,4-oxadiazol-2(3H)-one] |
| 1.45 | 0.0666 | O=C1c2c(nc(CCc3ccc(F)cc3)c(-c3n[nH]c(=O)o3)c2-c2cc3ccnc(N[C@@H]4CCc5c(F)cccc54)c3s2)C23CC(CN12)C3 [Compound 272, (R)-5-(4-(7-((4-fluoro-2,3-dihydro-1H-inden-1-yl)amino)thieno[2,3-c]pyridin-2-yl)-2-(4-fluorophenethyl)-5-oxo-8,9-dihydro-5H,7H-8,9a-methanopyrido[2,3-a]pyrrolizin-3-yl)-1,3,4-oxadiazol-2(3H)-one] |
| 0.196 | 0.00979 | COc1c(F)ccc2c1C[C@@H](F)[C@H]2Nc1nc(C)cc2cc(-c3c4c(nc(CCc5ccc(F)cc5)c3-c3n[nH]c(=O)o3)C35CC(CN3C4=O)C5)sc12 [Compound 196, 5-(4-(7-(((1S,2R)-2,5-difluoro-4-methoxy-2,3-dihydro-1H-inden-1-yl)amino)-5-methylthieno[2,3-c]pyridin-2-yl)-2-(4-fluorophenethyl)-5-oxo-8,9-dihydro-5H,7H-8,9a-methanopyrido[2,3-a]pyrrolizin-3-yl)-1,3,4-oxadiazol-2(3H)-one] |
